Results on twelve compounds are retold here after ChEMBL document CHEMBL1201862, “PubChem BioAssay data set” (2004).

Test systems include SK-OV-3; A549; PC-3; NCI-H23; COLO 205; KM12; SK-MEL-5; MDA-MB-231; UO-31; UACC-62; Hs-578T; SK-MEL-28; MOLT-4; Malme-3M; OVCAR-5; NCI-H522; LOX IMVI; SN12C; RPMI-8226; MCF7.
Common to all, as to assay: inhibition of tumour cell growth, NCI panel, 48 h

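Briefly, cells in 96-well plates were exposed to five compound concentrations for 48 h, and endpoints were estimated by linear interpolation. GI50 marks 50% less growth.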 Active and inactive are the calls of the source. Cut-off read from the data, not from the text of the source: active = GI50 up to about 1.1 µM and inactive = higher.

Regarding `COc1cc([C@@H]2c3cc4c(cc3[C@@H](NCCNCCO)[C@H]3COC(=O)[C@H]23)OCO4)cc(OC)c1O`, the GI50 in the assay with SK-OV-3 is 2.33 µM (inactive); in the assay with A549, 0.406 µM (active); with PC-3 it was 3.78 µM (inactive); with NCI-H23, 1.08 µM (active); in the assay with COLO 205, 2.42 µM (inactive); in the assay on KM12, 3.72 µM (inactive). In addition, the GI50 in the assay with SK-MEL-5 was 0.659 µM (active); with MDA-MB-231 it was 3.69 µM (inactive); in the assay with UO-31 it was 15.4 µM (inactive); in the assay on UACC-62, 0.601 µM (active); in the assay with Hs-578T it was 2.63 µM (inactive); in the assay on SK-MEL-28 it was 2.67 µM (inactive). In the assay on MOLT-4, the GI50 is 0.0267 µM (active).
On to `C[C@H](N)C(=O)Nc1ccc(-c2nc3ccccc3s2)cc1`, for which the GI50 is 22.5 µM (inactive) with SK-OV-3; 15.6 µM (inactive) in the assay on A549; 20.2 µM (inactive) with PC-3; 32.2 µM (inactive) with NCI-H23; 18.6 µM (inactive) in the assay with COLO 205; 16.3 µM (inactive) in the assay on KM12. In addition, the GI50 in the assay with SK-MEL-5 is 20.1 µM (inactive); with Malme-3M, 19.1 µM (inactive); in the assay with MDA-MB-231 it was 18.4 µM (inactive); in the assay with UO-31 it was 12.3 µM (inactive); in the assay with UACC-62, 18.5 µM (inactive); in the assay with Hs-578T it was 37.8 µM (inactive). Moreover, the GI50 in the assay on OVCAR-5 is 18.7 µM (inactive); in the assay on NCI-H522, 18.5 µM (inactive); with LOX IMVI, 19.1 µM (inactive); in the assay on SK-MEL-28, 18.5 µM (inactive); in the assay on SN12C, 24.8 µM (inactive); in the assay on MOLT-4 it was 16.3 µM (inactive).
In the case of `CN1CCN(c2ccc3nc(-c4cc(O)c5c(nc(CO)n5C)c4O)[nH]c3n2)CC1`, the GI50 in the assay on SK-OV-3 is > 100 µM (inactive); in the assay on A549, 69.2 µM (inactive); in the assay on PC-3 it was 32.3 µM (inactive); in the assay on NCI-H23, 64.3 µM (inactive); in the assay with COLO 205 it was 15.9 µM (inactive); with KM12, 54.2 µM (inactive). The GI50 in the assay with Malme-3M was 18.4 µM (inactive); in the assay on MDA-MB-231 it was 22.4 µM (inactive); with UO-31 it was 55.1 µM (inactive); with RPMI-8226 it was 22.6 µM (inactive); in the assay with UACC-62, 11.6 µM (inactive); with Hs-578T, > 100 µM (inactive). Besides, the GI50 in the assay on OVCAR-5 was > 100 µM (inactive); in the assay with NCI-H522, 20.1 µM (inactive); in the assay on LOX IMVI, 17.1 µM (inactive); in the assay on SK-MEL-28, > 100 µM (inactive); with SN12C it was 16.7 µM (inactive); in the assay on MOLT-4, 17.6 µM (inactive).
Consider `COc1ccc(-c2cc(=O)c3c(OC)c(OC)c(OC)cc3o2)cc1`, for which the GI50 in the assay on SK-OV-3 is 24.3 µM (inactive); with MCF7, 37.4 µM (inactive); in the assay on A549 it was 27.1 µM (inactive); in the assay with NCI-H23 it was 40.6 µM (inactive); with COLO 205, 22.1 µM (inactive); in the assay with SK-MEL-5, 13.2 µM (inactive). Besides, the GI50 in the assay with Malme-3M was 38 µM (inactive); in the assay on MDA-MB-231, 43.8 µM (inactive); with UO-31, 19 µM (inactive); in the assay with RPMI-8226, 27 µM (inactive); with UACC-62, 27.5 µM (inactive); with Hs-578T, 35.6 µM (inactive). Besides, the GI50 with OVCAR-5 was 44 µM (inactive); in the assay with NCI-H522, 23.7 µM (inactive); with LOX IMVI, 28.2 µM (inactive); in the assay with SK-MEL-28, 45.6 µM (inactive); with SN12C, 25.2 µM (inactive); with MOLT-4, 18 µM (inactive).
As to `COc1cc(OC)cc(-n2c(N)c(-c3nc4ccccc4s3)c3ccc([N+](=O)[O-])cc3c2=O)c1`, the GI50 was 79.6 µM (inactive) in the assay with SK-OV-3; > 100 µM (inactive) in the assay with MCF7; 77.4 µM (inactive) in the assay with NCI-H23; 30.4 µM (inactive) in the assay with COLO 205; 56.9 µM (inactive) in the assay with KM12; 45.8 µM (inactive) in the assay on SK-MEL-5. In addition, the GI50 in the assay on Malme-3M is 32.5 µM (inactive); in the assay on MDA-MB-231, 21.3 µM (inactive); in the assay with UO-31 it was 40.4 µM (inactive); in the assay with RPMI-8226 it was > 100 µM (inactive); in the assay with UACC-62, > 100 µM (inactive); with Hs-578T, 27.7 µM (inactive). The GI50 in the assay with NCI-H522 was 23.9 µM (inactive); in the assay with LOX IMVI it was > 100 µM (inactive); with SK-MEL-28 it was > 100 µM (inactive); in the assay with SN12C, 18.4 µM (inactive).
Turning to `COc1cc2c(cc1OC)OC(c1c(OC)ccc(OC)c1O)CC2` (stereo not drawn), the GI50 is > 100 µM (inactive) in the assay with SK-OV-3; 78.2 µM (inactive) with MCF7; > 100 µM (inactive) with A549; > 100 µM (inactive) in the assay on PC-3; > 100 µM (inactive) in the assay with NCI-H23; 91.4 µM (inactive) with COLO 205. For the same compound, the GI50 with KM12 is > 100 µM (inactive); in the assay on SK-MEL-5, 76.2 µM (inactive); in the assay on Malme-3M, 74 µM (inactive); in the assay on MDA-MB-231, > 100 µM (inactive); in the assay on UO-31 it was > 100 µM (inactive); with RPMI-8226, 37.2 µM (inactive). Also, the GI50 with UACC-62 is > 100 µM (inactive); in the assay on Hs-578T, 53.8 µM (inactive); with OVCAR-5 it was > 100 µM (inactive); with LOX IMVI, > 100 µM (inactive); with SK-MEL-28, > 100 µM (inactive); in the assay with MOLT-4 it was 71.9 µM (inactive).
Turning to `CC12CC3c4ccccc4CN1C3(c1ccccc1)OC2=O` (stereo not drawn), the GI50 in the assay on SK-OV-3, in the assay on A549, with PC-3, with NCI-H23, in the assay on COLO 205 and with KM12 was > 100 µM (inactive) throughout. Moreover, the GI50 with SK-MEL-5, in the assay on Malme-3M, with MDA-MB-231, in the assay with UO-31, in the assay on UACC-62 and with Hs-578T was > 100 µM (inactive) each time. The GI50 in the assay on OVCAR-5, in the assay with NCI-H522, in the assay on LOX IMVI, in the assay with SK-MEL-28, in the assay on SN12C and with MOLT-4 was > 100 µM (inactive) throughout.
Take `COc1cc2c(oc(=O)c3c4occc4cc(OC)c23)c2cccc(O)c12`: the GI50 with SK-OV-3, in the assay on A549, with NCI-H23, in the assay on COLO 205, in the assay with KM12 and with SK-MEL-5 was > 100 µM (inactive) in each case. Moreover, the GI50 in the assay on Malme-3M, with UO-31, in the assay on RPMI-8226, in the assay on UACC-62, in the assay with OVCAR-5 and in the assay on NCI-H522 was > 100 µM (inactive) in each case. Besides, the GI50 in the assay with LOX IMVI, with SK-MEL-28, in the assay on SN12C and with MOLT-4 was > 100 µM (inactive) in each case.
Regarding `COC(=O)c1ccccc1/C=C1\Cc2cc(C)c(C)cc2C1=O`, the GI50 with MCF7, in the assay with A549, in the assay with PC-3, in the assay on COLO 205, in the assay with KM12 and with SK-MEL-5 was > 100 µM (inactive) in each case. Moreover, the GI50 in the assay on Malme-3M was > 100 µM (inactive); in the assay with UO-31 it was 84.1 µM (inactive); in the assay with RPMI-8226 it was > 100 µM (inactive); with UACC-62, > 100 µM (inactive); with Hs-578T it was 40.7 µM (inactive); with OVCAR-5, > 100 µM (inactive). Moreover, the GI50 was 73.8 µM (inactive) with NCI-H522; > 100 µM (inactive) in the assay on LOX IMVI; > 100 µM (inactive) in the assay with SK-MEL-28; > 100 µM (inactive) with SN12C; > 100 µM (inactive) in the assay with MOLT-4.
`COC(=O)/C=C(/C=C1/C(C#N)=C(N)N(c2ccc(Cl)cc2)C1(C)/C(=C/C(=O)OC)C(=O)OC)C(=O)OC` (stereo not drawn): the GI50 with SK-OV-3 is 52.5 µM (inactive); with MCF7 it was 78.3 µM (inactive); in the assay on PC-3, 34.6 µM (inactive); in the assay with NCI-H23 it was 42.3 µM (inactive); in the assay on COLO 205, 25.1 µM (inactive); with Malme-3M, 51.2 µM (inactive). The GI50 is 8.69 µM (inactive) in the assay on MDA-MB-231; 64.1 µM (inactive) in the assay on UO-31; 24.7 µM (inactive) in the assay on RPMI-8226; 19.6 µM (inactive) in the assay with UACC-62; > 100 µM (inactive) in the assay with OVCAR-5; 33.2 µM (inactive) with NCI-H522. For the same compound, the GI50 in the assay on LOX IMVI was 23.9 µM (inactive); with SK-MEL-28, > 100 µM (inactive); with SN12C it was 35.8 µM (inactive); in the assay with MOLT-4 it was 23 µM (inactive).
For `CN1/C(=C/C=C/C=C/C=C2C(=O)c3ccccc3C2=O)C(C)(C)c2ccccc21`, the GI50 is 39.4 µM (inactive) in the assay with SK-OV-3; 31.3 µM (inactive) with MCF7; 7 µM (inactive) with A549; 41 µM (inactive) in the assay with NCI-H23; 26.6 µM (inactive) with COLO 205; 76.9 µM (inactive) with KM12. Also, the GI50 is 18.5 µM (inactive) in the assay with SK-MEL-5; 29.4 µM (inactive) in the assay on Malme-3M; 10.3 µM (inactive) with MDA-MB-231; 37.2 µM (inactive) with UO-31; 6.55 µM (inactive) in the assay on RPMI-8226; 17.7 µM (inactive) in the assay with UACC-62. In addition, the GI50 with Hs-578T was 29.9 µM (inactive); with OVCAR-5, 33 µM (inactive); in the assay with NCI-H522, 28.6 µM (inactive); in the assay on LOX IMVI it was 40.3 µM (inactive); in the assay on SN12C, > 100 µM (inactive).
For the compound `O=C(O)c1cc2ccccc2c(/N=N/c2ccccc2)c1O`, the GI50 in the assay on SK-OV-3 is 41.9 µM (inactive); in the assay on A549 it was 18.1 µM (inactive); with PC-3, 18.5 µM (inactive); with NCI-H23 it was 16.7 µM (inactive); in the assay with COLO 205, 17.9 µM (inactive); in the assay with KM12, 14.9 µM (inactive). The GI50 is 5.47 µM (inactive) in the assay on SK-MEL-5; 13.1 µM (inactive) in the assay with Malme-3M; > 100 µM (inactive) in the assay with MDA-MB-231; 31.2 µM (inactive) with UO-31; 21.6 µM (inactive) in the assay with RPMI-8226; 17.4 µM (inactive) with UACC-62. In addition, the GI50 in the assay on Hs-578T was 6.82 µM (inactive); in the assay on OVCAR-5, 24.9 µM (inactive); in the assay with NCI-H522, 26.6 µM (inactive); in the assay with SK-MEL-28, 29.8 µM (inactive); with SN12C, 23.3 µM (inactive); with MOLT-4 it was 92.7 µM (inactive).
